Values quoted from earlier work, collected in patent publication US20110071026A1, “LOW VISCOSITY, AQUEOUS […] CONCENTRATES” (priority 2009, published 2011).

Conditions: at 25° C.; acid form

Q: With `O=C(O)CNCP(=O)(O)O` [glyphosate, N-(phosphonomethyl)glycine] as the compound, how does the solubility in water read?
A: The solubility in water was “about 12 g/L”.
